Measured values taken from US20250129062A1, “AMORPHOUS SUBSTANCES, CRYSTALS, PHARMACEUTICAL COMPOSITIONS, PREPARATION METHODS AND USES OF THIOHYDANTOIN COMPOUND OR PHARMACEUTICALLY ACCEPTABLE SALT THEREOF” (SUZHOU KINTOR PHARMACEUTICALS, INC., priority 2021, published 2025).
Values joined by “and” are separate entries in the source; they are usually repeats but may differ in a detail not shown here. Identical values can stand only once. Like-named read-outs stand apart in the source and are kept apart here.

Experiments:
[1] = Solubility of amorphous substance in solvent systems (supersaturated solution, oscillated 24 h at room temperature, HPLC); type: physicochemical; details: dehydrated alcohol 50%: water 50% (w/w), aqueous with cosolvent or surfactant or cyclodextrin, thermodynamic from solid, Dehydrated alcohol 50%: water 50% (w/w); read-out: 24 h solubility
Protocol: The amorphous substance of the compound of formula I was prepared into supersaturated solutions with different solvents, and oscillated under a room temperature condition (a constant temperature). After oscillating for 24 h, sampling was performed, and the content of the sample was detected by HPLC under condition 1.
Condition 1: • Chromatographic column: C18 (150 mm×4.6 mm×3.5 μm); • Mobile phase: binary mobile phase system, mobile phase A was 0.1% formic acid in water, mobile phase B was acetonitrile; • Elution time: 68 min; • Elution mode: gradient elution (in the gradient elution process, mobile phase A had the maximum volume percentage of 95% and the minimum volume percentage of 10%); • Detection wavelength: 270 nm.

[2] = Distribution of compound in sebaceous glands and blood of golden hamsters after single skin application; type: in vivo; details: for Concentration in sebaceous glands / concentration at 8 h: 8 h
Protocol: 6 male golden hamsters were selected for the experiment, and randomly divided evenly into 2 groups, with three golden hamsters per group. All animals were fasted overnight before administration, and were administered via a route of single application. Sampling was performed at specific time points after administration. Specific information on animal grouping, administration, sampling, etc. were detailed in Table 6.
The amorphous substance of the compound of formula I was weighed and placed in a 50 mL centrifugal tube. A mixed solvent (consisting of 75% v/v ethanol, 15% v/v glyceryl tri (2-ethylhexanoate) and 10% v/v glycerin) was added. After vortexing, heating was performed at 60° C. until the amorphous substance of the compound of formula I was completely dissolved. The amorphous substances of the compound of formula I in the two groups were prepared at 30 mg/mL and 100 mg/mL, respectively, and stored at room temperature in the dark.
After administration, blood was collected into blood collection tubes containing a heparin sodium anticoagulant at corresponding time points. Immediately after collection of whole blood, the blood collection tubes were gently shaken and placed on ice, and then centrifuged (4° C., 4000 rpm, 10 min). The supernatant plasma samples (plasma volume ≥100 μL) were collected, and stored in a refrigerator at about −80° C. The plasma samples were collected for 8 h for analysis.

Compound: Cc1ncsc1-c1ccc(CNC(=O)[C@@H]2C[C@@H](O)CN2C(=O)[C@@H](NC(=O)COCCCCOc2ccc(-c3ccc(N4C(=S)N(c5ccc(C#N)c(C(F)(F)F)c5F)C(=O)C4(C)C)cn3)cc2)C(C)(C)C)cc1 [compound of formula I]
- solubility at 24 h [1]: 6440 µg/mL
- Concentration in sebaceous glands ([2]; Left sebaceous gland, dose 1.2 mg, individual animals No. 1-3): 10900 ng/mL and 20400 ng/mL and 7010 ng/mL
- Concentration in sebaceous glands ([2]; Left sebaceous gland, dose 4 mg, individual animals No. 4-6): 57100 ng/mL and 15000 ng/mL and 8340 ng/mL
- Concentration in sebaceous glands ([2]; Right sebaceous gland, dose 1.2 mg, individual animals No. 1-3): 17900 ng/mL and 15700 ng/mL
- Concentration in sebaceous glands ([2]; Right sebaceous gland, dose 4 mg, individual animals No. 4-6): 19900 ng/mL and 18400 ng/mL
- distribution between sebaceous glands and blood after skin application ([2]; golden hamsters, administration via skin application): can enter sebaceous glands, but cannot enter blood
- maximum blood drug concentration ([2]; group 2, dose 4 mg, over sampling time points 0.25, 0.5, 1, 2, 4, 6 and 8 h): 10.6 ng/mL
- Concentration of compound of formula I in plasma ([2]; male golden hamsters, skin application 4 mg, 2 h, individual animals No. 4, 5, 6): 10.6 ng/mL
- Concentration of compound of formula I in plasma ([2]; male golden hamsters, skin application 4 mg, 4 h, individual animals No. 4, 5, 6): 4.42 ng/mL
- concentration at 0.5 h ([2]; male, hamster, plasma, topical, 4 mg, male golden hamsters, skin application 4 mg, 0.5 h, individual animals No. 4, 5, 6, read-out: Concentration of compound of formula I in plasma): < 0 ng/mL
- concentration at 1 h ([2]; male, hamster, plasma, topical, 4 mg, male golden hamsters, skin application 4 mg, 1 h, individual animals No. 4, 5, 6, read-out: Concentration of compound of formula I in plasma): < 0 ng/mL
- concentration at 2 h ([2]; male, hamster, plasma, topical, 4 mg, male golden hamsters, skin application 4 mg, 2 h, read-out: Concentration of compound of formula I in plasma, Mean): 11 ng/mL
- concentration at 4 h ([2]; male, hamster, plasma, topical, 4 mg, male golden hamsters, skin application 4 mg, 4 h, read-out: Concentration of compound of formula I in plasma, Mean): 4 ng/mL
- concentration at 8 h ([2]; male, hamster, right sebaceous gland, topical, 1.2 mg, Right sebaceous gland, dose 1.2 mg, individual animals No. 1-3, read-out: Concentration in sebaceous glands): 9170 ng/mL
- concentration at 8 h ([2]; male, hamster, right sebaceous gland, topical, 4 mg, Right sebaceous gland, dose 4 mg, individual animals No. 4-6, read-out: Concentration in sebaceous glands): 26600 ng/mL
- concentration at 8 h ([2]; male, hamster, sebaceous glands (left and right), topical, 1.2 mg, left and right sebaceous glands, dose 1.2 mg, read-out: Concentration mean in sebaceous glands): 13500 ng/mL
- concentration at 8 h ([2]; male, hamster, sebaceous glands (left and right), topical, 4 mg, left and right sebaceous glands, dose 4 mg, read-out: Concentration mean in sebaceous glands): 24200 ng/mL
